Assays:
Experiment in all cases: relative viability (nuclei count vs DMSO), 5 days (fraction); higher = more cells survive
[1] = tested on: RERF-LC-KJ
Outline: (§1)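 Values are medians from duplicate plates. Each reflects relative viability, defined as the nuclei count of treated wells over that of vehicle wells. Lung cancer cell lines in 1536-well plates were pin-tool dosed one day after seeding with one drug alone or with a fixed anchor-drug dose plus five library-drug doses (not always all listed) in √10 steps, then fixed, stained and imaged at 4× after 5 days.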

[2] = tested on: SW 900
Outline: as §1

[3] = tested on: LK-2
Outline: as §1

[4] = tested on: LU99A
Outline: as §1

[5] = tested on: SK-LU-1
Outline: as §1

[6] = tested on: NCI-H2342
Outline: as §1

[7] = tested on: LCLC-103H
Outline: as §1

[8] = tested on: NCI-H1975
Outline: as §1

[9] = tested on: HCC-78
Outline: as §1

[10] = tested on: NCI-H1666
Outline: as §1

[11] = tested on: LXF-289
Outline: as §1

[12] = tested on: NCI-H2126
Outline: as §1

[13] = tested on: EMC-BAC-2
Outline: as §1

[14] = tested on: ChaGo-K-1
Outline: as §1

[15] = tested on: EKVX
Outline: as §1

[16] = tested on: SW 1573
Outline: as §1

[17] = tested on: NCI-H23
Outline: as §1

[18] = tested on: PC-14
Outline: as §1

[19] = tested on: HCC-827
Outline: as §1

[20] = tested on: NCI-H322M
Outline: as §1

[21] = tested on: EPLC-272H
Outline: as §1

[22] = tested on: NCI-H1563
Outline: as §1

[23] = tested on: NCI-H2405
Outline: as §1

With `O=c1cc(-c2cccc3c2Sc2ccccc2S3)oc(N2CCOCC2)c1` + COc1cc2c(Oc3ccc(NC(=O)C4(C(=O)Nc5ccc(F)cc5)CC4)cc3F)ccnc2cc1OCCCN1CCOCC1 [Foretinib] (partner 0.25 µM) the relative viability ([1]; first compound 0.08 µM) was 0.836, the relative viability ([1]; first compound 0.253 µM) was 0.952 and the relative viability ([1]; first compound 0.8 µM) was 0.745. The relative viability ([1]; first compound 2.53 µM) was 0.995, the relative viability ([1]; first compound 8 µM) was 0.792 and the relative viability ([2]; first compound 0.08 µM) was 0.772. For the same compound, the relative viability ([2]; first compound 0.253 µM) was 1.27, the relative viability ([2]; first compound 0.8 µM) was 1.05 and the relative viability ([2]; first compound 2.53 µM) was 0.723. It also gave a relative viability ([2]; first compound 8 µM) of 0.648, a relative viability ([3]; first compound 0.08 µM) of 0.933 and a relative viability ([3]; first compound 0.253 µM) of 1.24. The relative viability ([3]; first compound 0.8 µM) was 1.23, the relative viability ([3]; first compound 2.53 µM) was 0.997 and the relative viability ([3]; first compound 8 µM) was 1.25. It also gave a relative viability ([4]; first compound 0.08 µM) of 0.825, a relative viability ([4]; first compound 0.253 µM) of 0.841 and a relative viability ([4]; first compound 0.8 µM) of 1.04. It also gave a relative viability ([4]; first compound 2.53 µM) of 0.829, a relative viability ([4]; first compound 8 µM) of 1.13 and a relative viability ([5]; first compound 0.08 µM) of 0.787. It also gave a relative viability ([5]; first compound 0.253 µM) of 1.05, a relative viability ([5]; first compound 0.8 µM) of 0.906 and a relative viability ([5]; first compound 2.53 µM) of 0.842. The relative viability ([5]; first compound 8 µM) was 0.831, the relative viability ([6]; first compound 0.08 µM) was 0.996 and the relative viability ([6]; first compound 0.253 µM) was 1.04. The relative viability ([6]; first compound 0.8 µM) was 0.916, the relative viability ([6]; first compound 2.53 µM) was 0.917 and the relative viability ([6]; first compound 8 µM) was 1.11. For the same compound, the relative viability ([7]; first compound 0.08 µM) was 0.721, the relative viability ([7]; first compound 0.253 µM) was 0.831 and the relative viability ([7]; first compound 0.8 µM) was 0.794. For the same compound, the relative viability ([7]; first compound 2.53 µM) was 0.71, the relative viability ([7]; first compound 8 µM) was 0.712 and the relative viability ([8]; first compound 0.08 µM) was 0.966. It also gave a relative viability ([8]; first compound 0.253 µM) of 0.924, a relative viability ([8]; first compound 0.8 µM) of 0.931 and a relative viability ([8]; first compound 2.53 µM) of 0.946. The relative viability ([8]; first compound 8 µM) was 1.02, the relative viability ([9]; first compound 0.08 µM) was 0.515 and the relative viability ([9]; first compound 0.253 µM) was 0.561. It also gave a relative viability ([9]; first compound 0.8 µM) of 0.519, a relative viability ([9]; first compound 2.53 µM) of 0.514 and a relative viability ([9]; first compound 8 µM) of 0.498. For the same compound, the relative viability ([10]; first compound 0.08 µM) was 1, the relative viability ([10]; first compound 0.253 µM) was 1.07 and the relative viability ([10]; first compound 0.8 µM) was 1.13. For the same compound, the relative viability ([10]; first compound 2.53 µM) was 0.971, the relative viability ([10]; first compound 8 µM) was 0.908 and the relative viability ([11]; first compound 0.08 µM) was 0.935. It also gave a relative viability ([11]; first compound 0.253 µM) of 1.12, a relative viability ([11]; first compound 0.8 µM) of 0.974 and a relative viability ([11]; first compound 2.53 µM) of 1.02. It also gave a relative viability ([11]; first compound 8 µM) of 1.1, a relative viability ([12]; first compound 0.08 µM) of 1.22 and a relative viability ([12]; first compound 0.253 µM) of 1.39. The relative viability ([12]; first compound 0.8 µM) was 1.02, the relative viability ([12]; first compound 2.53 µM) was 1.03 and the relative viability ([12]; first compound 8 µM) was 0.994. For the same compound, the relative viability ([13]; first compound 0.08 µM) was 0.998, the relative viability ([13]; first compound 0.253 µM) was 0.987 and the relative viability ([13]; first compound 0.8 µM) was 1. For the same compound, the relative viability ([13]; first compound 2.53 µM) was 1.03, the relative viability ([13]; first compound 8 µM) was 1.12 and the relative viability ([14]; first compound 0.08 µM) was 0.883. It also gave a relative viability ([14]; first compound 0.253 µM) of 0.98, a relative viability ([14]; first compound 0.8 µM) of 1.03 and a relative viability ([14]; first compound 2.53 µM) of 0.88. For the same compound, the relative viability ([14]; first compound 8 µM) was 0.861, the relative viability ([15]; first compound 0.08 µM) was 0.785 and the relative viability ([15]; first compound 0.253 µM) was 0.892. It also gave a relative viability ([15]; first compound 0.8 µM) of 0.751, a relative viability ([15]; first compound 2.53 µM) of 0.734 and a relative viability ([15]; first compound 8 µM) of 1.33. It also gave a relative viability ([16]; first compound 0.08 µM) of 0.8, a relative viability ([16]; first compound 0.253 µM) of 0.916 and a relative viability ([16]; first compound 0.8 µM) of 0.783. For the same compound, the relative viability ([16]; first compound 2.53 µM) was 0.989, the relative viability ([16]; first compound 8 µM) was 1 and the relative viability ([17]; first compound 0.08 µM) was 0.96. It also gave a relative viability ([17]; first compound 0.253 µM) of 1.14, a relative viability ([17]; first compound 0.8 µM) of 0.906 and a relative viability ([17]; first compound 2.53 µM) of 0.886. It also gave a relative viability ([17]; first compound 8 µM) of 0.898, a relative viability ([18]; first compound 0.08 µM) of 0.95 and a relative viability ([18]; first compound 0.253 µM) of 1.29. It also gave a relative viability ([18]; first compound 0.8 µM) of 0.924, a relative viability ([18]; first compound 2.53 µM) of 0.961 and a relative viability ([18]; first compound 8 µM) of 0.966. It also gave a relative viability ([19]; first compound 0.08 µM) of 0.94, a relative viability ([19]; first compound 0.253 µM) of 1.12 and a relative viability ([19]; first compound 0.8 µM) of 1.07. For the same compound, the relative viability ([19]; first compound 2.53 µM) was 0.863, the relative viability ([19]; first compound 8 µM) was 1.02 and the relative viability ([20]; first compound 0.08 µM) was 0.896. It also gave a relative viability ([20]; first compound 0.253 µM) of 1, a relative viability ([20]; first compound 0.8 µM) of 0.885 and a relative viability ([20]; first compound 2.53 µM) of 0.858. It also gave a relative viability ([20]; first compound 8 µM) of 0.972, a relative viability ([21]; first compound 0.08 µM) of 0.6 and a relative viability ([21]; first compound 0.253 µM) of 0.624. It also gave a relative viability ([21]; first compound 0.8 µM) of 0.897, a relative viability ([21]; first compound 2.53 µM) of 0.675 and a relative viability ([21]; first compound 8 µM) of 0.572. It also gave a relative viability ([22]; first compound 0.08 µM) of 0.922, a relative viability ([22]; first compound 0.253 µM) of 0.895 and a relative viability ([22]; first compound 0.8 µM) of 0.868. The relative viability ([22]; first compound 2.53 µM) was 0.89, the relative viability ([22]; first compound 8 µM) was 0.91 and the relative viability ([23]; first compound 0.08 µM) was 0.998. For the same compound, the relative viability ([23]; first compound 0.253 µM) was 1.09, the relative viability ([23]; first compound 0.8 µM) was 0.975 and the relative viability ([23]; first compound 2.53 µM) was 0.938. For the same compound, the relative viability ([23]; first compound 8 µM) was 1.04.

From the supplement of paper PMC10307832
